Values of other authors, collected in patent US7147859B2 (Laboratorios Biosintetica LTDA., priority 2000, dated 2006).

System: cholesterol absorbance
Settings: in vivo

CCC(CCC(C)C1CCC2C3CC=C4CC(O)CCC4(C)C3CCC12C)C(C)C (stereo not shown) [Betasitosterol]
reduction of cholesterol absorbance: up to 68%
